Data published in patent US12275685B2, “Oligo-benzamide analogs and their use in cancer treatment” (Board of Regents, The University of Texas System, priority 2018, dated 2025).

Tests used:
[1] = biological target: T1, LIPA (Homo sapiens, UniProt P38571); test: Biotinylated ERX-41 pulldown; type: binding; settings: WT-LIPA and H274Y MT-LIPA, not DLXXLL or L242P MT-LIPA
T1 construct: expressed in transfected cells; host or cells: SUM-159 cells with LIPA KO, reconstituted with LIPA plasmid constructs
Source text: FIGS. 39A-N: (FIGS. 39A-E) Predicted binding mode of ERX-41 (colored in green) on the human lysosomal acid lipase (LAL, PDB code: 6V7N, LXXLL (SEQ ID NO: 1) domain colored in orange). (FIG. 39F) PDB structure of LAL protein showing relative positions of the catalytic domain (with H274Y MT) and the LXXLL (SEQ ID NO: 1) domain (L242P MT). (FIG. 39G) Evaluation of the effect of ERX-41 and lalistat (known lipase inhibitor) on lipase activity of parental SUM-159 (WT) and SUM-159 cells with LIPA KO. (FIG. 39H) Evaluation of basal lipase activity in parental SUM-159 (WT), SUM-159 cells with LIPA KO (KO), SUM-159 cells with LIPA KO and with reconstitution of either WT LIPA (KO+WT), H274Y MT-LIPA (KO+H274Y), DLXXLL (SEQ ID NO: 2) MT-LIPA (KO+DLXXLL (SEQ ID NO: 2)) or L242P MT-LIPA (KO+L242P). Protein expression of LAL and control vinculin in these cells are shown below (FIG. 391) Cellular lysates from described SUM-159 cells were incubated with biotinylated ERX-11 or biotinylated ERX-41 and then subject to a streptavidin column. Elutants were then evaluated for LIPA pulldown by western blotting. (FIG. 39J) Dose response curve to increasing concentrations of ERX-41 in described SUM-159 cells. (FIGS. 39K-M) Effect of vehicle or 1 μM ERX-41 on induction of UPR genes at the protein level (FIG. 39K) or RNA level (FIGS. 39L-M). […]

[2] = tested on: ERMT (therapy resistant) xenografts; test: ERMT therapy resistant xenografts; type: in vivo, nude mice; settings: 10 mg/kg/day oral
Method: FIGS. 8A & 8B show the effect of TK41 (i.e., ERX-41) on therapy resistant cancer cells. ERMT (therapy resistant) xenografts (n=8) were established in nude mice and treated with vehicle (circle markers) or 10 mg/kg/day/oral ERX-41 (square markers).

[3] = tested on: primary TNBC tumors; test: Ex vivo patient derived explant (PDE) cultures of TNBC; type: cell-based, human
Method: FIGS. 38A-E: LIPA is a viable molecular target in TNBC. (FIG. 38A) Kaplan-Meier curves show the correlation between expression levels of LAL with survival outcomes using a TCGA dataset with numerical tabulation below. (FIGS. 38B-D) Following surgical extirpation, primary TNBC tumors were cultured ex vivo either with vehicle or 1 μM ERX-41, as shown by the schematic (FIG. 38B). The effect on proliferation index (ki67) (FIG. 38C) and apoptosis markers (cleaved caspase 3) (FIG. 38D) is graphed. Representative immunohistochemical images of the effect of ERX-41 on ki67, cleaved caspase 3 and UPR genes shown (FIG. 38E).
ERX-41 has activity on human TNBC tumors. To ascertain that ERX-41 would have activity against primary TNBC tumors, the inventors leveraged their prior significant experience with the ex vivo patient derived explant (PDE) cultures […]. The PDE cultures, maintains the native tissue architecture and better recapitulates the heterogeneity of human TNBC in a laboratory setting.

[4] = tested on: nuclear receptor (NR) interaction with its coregulator proteins; test: Inhibition of nuclear receptor-coregulator interaction in cancer cells; type: cell-based
Method: The present oligo-benzamide analogs are extremely potent and effective on various cancer cells including breast cancer, ovarian cancer, and pancreatic cancer. These compounds have a unique mode of action compared to existing therapeutic treatments to these diseases. The compounds are very potent with IC50 values of 10-50 nM for growth inhibition. TK41 is a tris-benzamide analog and it inhibits nuclear receptor (NR) interaction with its coregulator proteins in cancer cells with high potency (IC50 is approximately 100 nM; FIGS. 1-4).

[5] = tested on: pancreatic cancer MiaPaca cells; test: ER stress in pancreatic cancer cells by electron microscopy; type: cell-based
Source text: The basal level of expression of endoplasmic reticulum stress and unfolded protein response correlates with TK41 activity (FIG. 28). Modulation of the level of these stress proteins affects the activity of TK41. Thus, the basal level of expression of endoplasmic reticulum stress and unfolded protein response proteins may serve as a biomarker to predict response to TK41. […] Without wishing to be bound by any particular theory, the mechanism of action of TK41 may operate comprise targeting either ER or TLX and inducing endoplasmic reticulum stress, subsequent apoptosis, and blocking autophagic fusion (FIG. 30).

T1 sequence (P38571 22-399): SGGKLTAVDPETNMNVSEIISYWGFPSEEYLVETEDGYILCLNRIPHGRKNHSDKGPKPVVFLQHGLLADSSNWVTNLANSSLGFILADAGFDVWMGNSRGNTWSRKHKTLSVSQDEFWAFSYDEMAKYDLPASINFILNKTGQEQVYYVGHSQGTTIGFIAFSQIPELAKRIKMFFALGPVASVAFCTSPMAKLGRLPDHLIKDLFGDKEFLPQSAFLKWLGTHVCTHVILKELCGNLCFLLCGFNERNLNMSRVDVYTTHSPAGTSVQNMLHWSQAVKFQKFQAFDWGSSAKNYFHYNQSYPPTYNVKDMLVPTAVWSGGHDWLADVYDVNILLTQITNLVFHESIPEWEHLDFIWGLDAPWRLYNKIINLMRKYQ

## CC(C)COc1cc(C(=O)Nc2ccc(C(=O)N[C@H]3CC[C@H](C)CC3)cc2OCC(C)C)ccc1NC(=O)c1ccc([N+](=O)[O-])c(OCCO)c1 [TK41]
[1]
  interaction with LIPA: direct interaction
[2]
  activity against ERMT tumors: has activity against ERMT tumors
[3]; 1 μM ex vivo
  apoptosis (cleaved caspase 3 staining): increased apoptosis
  proliferation (ki67 staining): decreased proliferation
[3]; within 24 h after treatment
  UPR pathway markers by immunohistochemistry: enhanced pPERK, CHOP (protein product of DDIT3 gene) and peiF2a staining
[4]
  IC50: ~100 nM
[5]
  induction of endoplasmic reticulum stress in MiaPaca: Endoplasmic reticulum stress was also induced
